We go through 30 molecules from ChEMBL document CHEMBL6083185, “Unraveling the future: Innovative design strategies and emerging challenges in HER2-targeted tyrosine kinase inhibitors for cancer therapy” (Eur J Med Chem, 2024).

In data set [1] the target is T1, Receptor tyrosine-protein kinase erbB-2 (Homo sapiens, UniProt P04626). Kind of data set: Inhibition of HER2 (unknown origin).
The next data set concerns BaF3. Kind of data set: Antiproliferative activity against mouse BaF3 cells harboring HER2 YVMA mutant measured for 24 hrs by CellTiter-Glo assay. Type of data set: functional, cell-based. As to conditions: BaF3, 24 h.
Data set [2] has as its system BT-474. As to the kind of experiment: Antiproliferative activity against human BT-474 cells. The class given is functional, cell-based.
Data set [3] addresses T1, Receptor tyrosine-protein kinase erbB-2. Kind of data set: Inhibition of flag-tagged HER2 (unknown origin) extracted from Escherichia coli.
Data set [4] in a line: Half life in human. Type of data set: ADME.
In data set [5] the target is T2, Epidermal growth factor receptor (Homo sapiens, UniProt P00533).
T2 sequence (P00533 whole entry): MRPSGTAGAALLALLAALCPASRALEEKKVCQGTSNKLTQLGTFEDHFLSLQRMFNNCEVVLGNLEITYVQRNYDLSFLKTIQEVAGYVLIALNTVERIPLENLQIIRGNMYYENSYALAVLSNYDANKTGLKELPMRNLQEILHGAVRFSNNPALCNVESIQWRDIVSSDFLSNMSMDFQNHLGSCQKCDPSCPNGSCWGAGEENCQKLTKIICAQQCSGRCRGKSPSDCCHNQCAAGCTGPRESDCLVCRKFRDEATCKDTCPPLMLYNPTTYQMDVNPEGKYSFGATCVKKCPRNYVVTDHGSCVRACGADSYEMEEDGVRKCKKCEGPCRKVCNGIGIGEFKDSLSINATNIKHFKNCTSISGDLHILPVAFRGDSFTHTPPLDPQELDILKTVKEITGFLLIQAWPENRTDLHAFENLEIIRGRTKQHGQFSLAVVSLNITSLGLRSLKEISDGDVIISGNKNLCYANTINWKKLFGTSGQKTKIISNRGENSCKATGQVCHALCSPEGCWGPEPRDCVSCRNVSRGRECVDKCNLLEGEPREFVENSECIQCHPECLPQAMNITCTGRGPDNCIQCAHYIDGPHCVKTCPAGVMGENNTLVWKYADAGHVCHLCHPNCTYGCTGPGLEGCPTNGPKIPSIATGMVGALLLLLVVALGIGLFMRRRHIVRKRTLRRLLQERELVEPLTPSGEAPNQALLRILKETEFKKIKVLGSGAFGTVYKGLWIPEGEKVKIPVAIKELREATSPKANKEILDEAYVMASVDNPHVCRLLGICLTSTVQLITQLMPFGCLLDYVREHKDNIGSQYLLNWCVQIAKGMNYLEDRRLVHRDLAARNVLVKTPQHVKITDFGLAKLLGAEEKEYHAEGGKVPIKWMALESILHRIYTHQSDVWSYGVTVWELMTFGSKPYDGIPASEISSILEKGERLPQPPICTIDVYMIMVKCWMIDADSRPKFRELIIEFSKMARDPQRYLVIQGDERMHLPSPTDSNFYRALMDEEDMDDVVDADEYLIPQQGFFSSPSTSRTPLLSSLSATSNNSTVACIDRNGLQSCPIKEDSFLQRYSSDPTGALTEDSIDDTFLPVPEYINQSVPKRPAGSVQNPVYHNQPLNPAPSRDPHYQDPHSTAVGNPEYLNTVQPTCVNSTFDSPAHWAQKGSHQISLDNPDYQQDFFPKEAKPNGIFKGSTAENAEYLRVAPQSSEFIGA
Description: Inhibition of EGFR (unknown origin)
Data set [6] can be described thus: Antiproliferative activity against human NCI-H1975 cells harboring EGFR L858R mutant assessed as reduction in cell viability measured after 72 hrs by MTT assay. The settings on record: NCI-H1975, 72 h. The class given is functional, cell-based.
The target of data set [7] is T1, Receptor tyrosine-protein kinase erbB-2. Kind of data set: Inhibition of wild-type HER2 phosphorylation in human BT-474 cells. Type of data set: cell-based.
For data set [8] the target is unchanged. As to the kind of experiment: Inhibition of human wild type HER2 using PolyEY as substrate pre-incubated for 30 mins followed by substrate addition and measured for 60 mins by spectrophotometric analysis.
The target in data set [9] is T2, Epidermal growth factor receptor. Kind of data set: Inhibition of human wild type EGFR using PolyEY as substrate pre-incubated for 30 mins followed by substrate addition and measured for 60 mins by spectrophotometric analysis.
In data set [10] the test system is NCI-N87. Kind of data set: Antiproliferative activity against human NCI-N87 cells. Type of data set: functional, cell-based.
The nature of data set [11]: Clearance in rat. Type of data set: ADME. The settings on record: in vivo.
A further data set relates to SK-BR-3. Kind of data set: Antiproliferative activity against human SK-BR-3 cells assessed as reduction in cell growth incubated for 72 hrs by MTT assay. The class given is functional, cell-based. The settings on record: SK-BR-3, 72 h.
Data set [12] can be described thus: Metabolic stability in human liver microsomes assessed as half life incubated for 60 mins by LC-MS/MS analysis. The class given is ADME, Microsome.
In data set [13] the test system is NCI-N87. As to the kind of experiment: Antiproliferative activity against human NCI-N87 cells assessed as cell growth measured for 48 hrs by MTT assay. Type of data set: functional, cell-based. The settings on record: NCI-N87, 48 h.
Data set [14] concerns BT-474. As to the kind of experiment: Antiproliferative activity against human BT-474 cells assessed as reduction in cell growth. The class given is functional, cell-based.
Data set [15] in a line: Metabolic stability in human liver microsomes assessed as half life. Type of data set: ADME, Microsome.
Data set [16] has as its target Receptor tyrosine-protein kinase erbB-2 (Homo sapiens, UniProt P04626, D769H). As to the kind of experiment: Inhibition of HER2 D769H mutant (unknown origin).
Data set [17] concerns the target Receptor tyrosine-protein kinase erbB-2 (Homo sapiens, UniProt P04626, D769Y). As to the kind of experiment: Inhibition of HER2 D769Y mutant (unknown origin).

T1 sequence (P04626 whole entry): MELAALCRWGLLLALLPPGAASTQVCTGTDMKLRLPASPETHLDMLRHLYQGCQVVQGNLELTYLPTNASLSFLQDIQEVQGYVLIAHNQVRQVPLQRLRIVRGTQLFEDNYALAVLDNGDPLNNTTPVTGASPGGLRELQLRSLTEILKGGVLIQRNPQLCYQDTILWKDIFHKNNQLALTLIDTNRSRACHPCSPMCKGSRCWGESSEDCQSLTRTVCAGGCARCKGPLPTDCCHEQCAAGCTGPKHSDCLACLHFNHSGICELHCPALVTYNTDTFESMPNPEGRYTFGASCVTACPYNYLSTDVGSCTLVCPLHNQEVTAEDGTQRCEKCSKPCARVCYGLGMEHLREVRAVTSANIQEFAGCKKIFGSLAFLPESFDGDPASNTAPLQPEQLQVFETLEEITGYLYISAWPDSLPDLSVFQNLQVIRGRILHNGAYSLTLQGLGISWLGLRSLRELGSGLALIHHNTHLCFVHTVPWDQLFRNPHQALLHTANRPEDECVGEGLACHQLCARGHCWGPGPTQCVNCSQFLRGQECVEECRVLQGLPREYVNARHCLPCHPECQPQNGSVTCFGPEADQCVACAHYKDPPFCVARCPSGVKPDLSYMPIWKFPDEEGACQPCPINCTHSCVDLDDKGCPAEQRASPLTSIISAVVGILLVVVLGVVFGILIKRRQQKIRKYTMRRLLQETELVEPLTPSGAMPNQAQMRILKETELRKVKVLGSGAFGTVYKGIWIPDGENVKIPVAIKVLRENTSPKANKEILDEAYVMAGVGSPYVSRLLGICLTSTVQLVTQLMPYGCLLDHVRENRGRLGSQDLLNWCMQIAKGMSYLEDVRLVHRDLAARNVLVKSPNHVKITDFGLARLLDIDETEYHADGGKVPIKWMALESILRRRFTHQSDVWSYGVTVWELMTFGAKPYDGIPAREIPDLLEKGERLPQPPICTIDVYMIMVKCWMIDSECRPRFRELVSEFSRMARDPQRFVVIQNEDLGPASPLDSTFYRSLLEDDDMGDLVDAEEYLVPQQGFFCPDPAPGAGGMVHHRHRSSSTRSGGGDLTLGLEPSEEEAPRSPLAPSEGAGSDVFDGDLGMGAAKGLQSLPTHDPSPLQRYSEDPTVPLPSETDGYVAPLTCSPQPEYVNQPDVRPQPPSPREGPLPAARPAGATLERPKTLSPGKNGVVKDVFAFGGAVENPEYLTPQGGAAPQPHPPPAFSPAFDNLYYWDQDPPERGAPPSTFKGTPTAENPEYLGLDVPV
Chain of Receptor tyrosine-protein kinase erbB-2 (Homo sapiens, UniProt P04626, D769H) (P04626 23-1255 D769H limits assumed): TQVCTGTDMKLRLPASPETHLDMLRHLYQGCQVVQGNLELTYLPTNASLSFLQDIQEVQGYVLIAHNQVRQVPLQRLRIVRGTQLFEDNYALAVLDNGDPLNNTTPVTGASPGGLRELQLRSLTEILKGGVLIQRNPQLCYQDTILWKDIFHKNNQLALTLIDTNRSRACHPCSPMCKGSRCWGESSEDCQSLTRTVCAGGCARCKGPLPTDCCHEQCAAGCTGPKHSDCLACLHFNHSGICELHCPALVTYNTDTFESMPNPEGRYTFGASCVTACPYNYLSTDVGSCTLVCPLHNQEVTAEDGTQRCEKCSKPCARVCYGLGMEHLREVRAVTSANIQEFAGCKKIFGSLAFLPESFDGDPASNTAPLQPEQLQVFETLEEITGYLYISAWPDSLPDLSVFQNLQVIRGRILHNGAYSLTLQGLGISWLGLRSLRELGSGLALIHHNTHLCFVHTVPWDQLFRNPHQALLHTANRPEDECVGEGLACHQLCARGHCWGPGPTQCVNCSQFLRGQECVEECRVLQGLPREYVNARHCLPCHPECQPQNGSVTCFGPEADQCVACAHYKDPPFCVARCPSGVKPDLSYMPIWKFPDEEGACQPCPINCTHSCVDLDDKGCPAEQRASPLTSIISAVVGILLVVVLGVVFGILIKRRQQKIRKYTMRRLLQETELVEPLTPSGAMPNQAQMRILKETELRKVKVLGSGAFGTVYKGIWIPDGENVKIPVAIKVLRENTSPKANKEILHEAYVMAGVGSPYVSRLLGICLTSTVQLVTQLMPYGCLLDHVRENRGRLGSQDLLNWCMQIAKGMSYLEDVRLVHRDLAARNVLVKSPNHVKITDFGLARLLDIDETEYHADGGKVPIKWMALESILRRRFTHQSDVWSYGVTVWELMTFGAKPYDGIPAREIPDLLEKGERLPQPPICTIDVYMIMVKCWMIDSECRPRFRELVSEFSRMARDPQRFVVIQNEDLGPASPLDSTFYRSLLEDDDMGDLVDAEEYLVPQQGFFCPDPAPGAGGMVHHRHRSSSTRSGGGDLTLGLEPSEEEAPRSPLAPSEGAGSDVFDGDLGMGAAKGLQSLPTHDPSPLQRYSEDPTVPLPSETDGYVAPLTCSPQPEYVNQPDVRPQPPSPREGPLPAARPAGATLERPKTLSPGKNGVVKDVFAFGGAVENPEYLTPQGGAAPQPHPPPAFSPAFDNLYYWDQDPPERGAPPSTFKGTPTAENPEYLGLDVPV
Chain of Receptor tyrosine-protein kinase erbB-2 (Homo sapiens, UniProt P04626, D769Y) (P04626 23-1255 D769Y limits assumed): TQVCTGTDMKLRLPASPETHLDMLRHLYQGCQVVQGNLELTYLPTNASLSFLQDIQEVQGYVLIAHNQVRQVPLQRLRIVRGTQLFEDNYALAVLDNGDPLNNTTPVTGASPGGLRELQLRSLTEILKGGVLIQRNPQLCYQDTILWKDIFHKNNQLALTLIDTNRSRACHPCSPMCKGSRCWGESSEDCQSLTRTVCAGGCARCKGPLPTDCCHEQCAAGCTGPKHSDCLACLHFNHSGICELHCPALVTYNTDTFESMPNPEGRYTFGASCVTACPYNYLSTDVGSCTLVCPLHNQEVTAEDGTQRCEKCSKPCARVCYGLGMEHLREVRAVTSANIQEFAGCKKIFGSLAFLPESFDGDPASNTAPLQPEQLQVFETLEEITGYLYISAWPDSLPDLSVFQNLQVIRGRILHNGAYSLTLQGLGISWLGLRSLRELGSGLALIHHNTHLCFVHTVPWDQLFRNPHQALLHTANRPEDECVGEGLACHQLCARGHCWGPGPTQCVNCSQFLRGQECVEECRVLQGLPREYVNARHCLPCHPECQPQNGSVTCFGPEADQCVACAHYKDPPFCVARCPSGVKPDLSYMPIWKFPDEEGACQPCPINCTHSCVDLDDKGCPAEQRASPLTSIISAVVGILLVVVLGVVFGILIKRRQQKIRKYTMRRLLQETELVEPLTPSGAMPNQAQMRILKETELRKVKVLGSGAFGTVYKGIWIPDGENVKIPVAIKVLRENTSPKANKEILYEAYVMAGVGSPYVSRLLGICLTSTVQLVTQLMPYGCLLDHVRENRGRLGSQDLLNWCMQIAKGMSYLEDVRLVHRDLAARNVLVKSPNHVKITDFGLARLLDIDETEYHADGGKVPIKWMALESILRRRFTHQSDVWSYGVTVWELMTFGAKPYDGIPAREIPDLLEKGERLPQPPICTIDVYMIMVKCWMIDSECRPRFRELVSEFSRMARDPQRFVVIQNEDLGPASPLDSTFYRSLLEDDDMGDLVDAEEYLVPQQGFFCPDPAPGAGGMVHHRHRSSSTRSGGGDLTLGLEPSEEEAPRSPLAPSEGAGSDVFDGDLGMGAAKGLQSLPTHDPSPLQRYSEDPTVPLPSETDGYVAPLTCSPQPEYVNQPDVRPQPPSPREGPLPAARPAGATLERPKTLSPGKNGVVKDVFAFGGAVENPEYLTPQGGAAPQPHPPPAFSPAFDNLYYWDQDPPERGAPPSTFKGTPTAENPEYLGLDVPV

As for `C=CC(=O)Nc1cccc(-c2c(-c3ccc(N4CCN(C)CC4)cc3)[nH]c3ncnc(Nc4ccc(OCc5ccccn5)c(Cl)c4)c23)c1`, the IC50 in data set [1] is roughly 2.3 nM.
In the data set with BaF3, `C=CC(=O)Nc1cccc(-c2c[nH]c3ncnc(Nc4ccc(OCc5ccccn5)c(Cl)c4)c23)c1` registered an IC50 of 17 nM.
As to `CN1CCN(CCCOc2ccc3ncnc(Nc4ccc(OCc5cccc(F)c5)c(Cl)c4)c3c2)CC1`, the IC50 worked out at 80 nM with BT-474 [2] and 12 nM in data set [3]. Besides, in data set [4], the half-life was 57.4 min.
`C=CC(=O)N1CCN(C(=O)Oc2cc3c(Nc4cccc(Cl)c4F)ncnc3cc2OC)[C@H](C)C1` yielded an IC50 in data set [1] of 152 nM.
For `C=CC(=O)N1C[C@@H]2C[C@H]1CN2C(=O)Oc1cc2c(Nc3ccc(Cl)c(Cl)c3F)ncnc2cc1OC`, in [1], the IC50 was found to be 6.07 nM.
Turning to `C=CC(=O)N1CCC[C@@H](n2nc(C(=O)Nc3ccc(CC(=O)N(C)C)c(C)c3C)c3c(N)ncnc32)C1`, the results for the IC50 in [1] and in data set [5] were 16.4 nM and 65 nM, respectively.
Consider `CCOc1cc2ncc(C#N)c(Nc3ccc(Oc4ccn5ncnc5c4)c(C)c3)c2cc1NC(=O)/C=C/CN(C)C`, for which the figures for the IC50 in data set [1] and in [5] were 2.21 nM and 7.04 nM, respectively.
On to `CCOCCOc1cc2ncnc(Nc3ccc(OCc4ccccn4)c(Cl)c3)c2cc1NC(=O)/C=C/CN(C)C`, for which the IC50 in data set [5] turned out to be 1.01 nM; in data set [6] it was 60.6 nM.
Take `Cc1cc(Nc2ncnc3ccc(NC(=O)/C=C/[C@H]4CCCN4C)cc23)ccc1Oc1cc2ncnn2cn1`: the half-inhibitory concentration (IC50) in [1] stood at 1.4 nM; in data set [5], 1.19 nM.
Take `Cc1cc(Nc2ncnc3cccc(O[C@H]4CCN(C)CC4(F)F)c23)ccc1Oc1ccn2ncnc2c1`: the IC50 in data set [7] is 5.8 nM.
Regarding `COc1cc2c(Nc3ccc(Oc4ccn5ncnc5c4)c(C)c3)ncnc2cc1OCCCN1CCN(CCCCCCCNc2ccc3c(c2)C(=O)N(C2CCC(=O)NC2=O)C3=O)CC1` (centres undefined), in data set [1], 0.04 nM corresponded to half-maximal inhibition (IC50).
In the case of `C=CC(=O)N1CCN(c2ncc3ncnc(Nc4ccc(Oc5ccn6ncnc6c5)c(C)c4)c3n2)CC1`, the IC50 in [8] was 5.8 nM; in the data set on BaF3 it was 5.8 nM; in data set [9], 2200 nM.
In the case of `COc1cc2ncnc(Nc3ccc(Oc4cccc5ccc(C)nc45)c(C)c3)c2cc1OC`, the IC50 in data set [1] stood at 14 nM; in data set [5], 11 nM.
As to `CCOc1cc2ncnc(Nc3ccc(Oc4ccn5ncnc5c4)c(C)c3)c2cc1NC(=O)/C=C/[C@H]1CCCN1C`, the IC50 in [1] was 1.67 nM; in data set [5], 1.36 nM; in the data set on NCI-N87 [10] it was 1.12 nM; in the data set with BT-474 [2], 2.13 nM.
As to `COCCOc1cc2ncnc(Nc3ccc(Oc4cccc5ccc(C)nc45)c(C)c3)c2cc1OCCOC`, the IC50 in [1] and in [5] was 12 nM each time.
As for `COCCOc1ccc2ncnc(Nc3ccc(Oc4cccc5ccc(C)nc45)c(C)c3)c2c1`, the figures for the IC50 in [1] and in [5] were 42 nM and 143 nM, respectively.
`O=C(Nc1ccc2ncnc(Nc3ccc(OCc4cccc(F)c4)c(Cl)c3)c2c1)c1ccc(CNCCO)cc1`: the IC50 in [1] was 12 nM; in the data set with BT-474 [2] it was 200 nM. The clearance in data set [11] was no more than 9.6 mL/min/kg.
For `C=CC(=O)N1CCC[C@@H](n2nc(-c3ccc(OCc4cccc(C)n4)cc3)c3c(N)ncnc32)C1`, the figures for the IC50 in data set [1] and in data set [5] were 16.4 nM and 0.12 nM, respectively.
Consider `C=CC(=O)N1CCN(c2ncc3ncnc(Nc4ccc(Oc5ccccc5)c(C)c4)c3n2)CC1`, for which the IC50 in data set [8] was 12 nM; with BaF3 it was 12 nM; in data set [9], 200 nM.
As to `Cc1ccc2cccc(Oc3ccc(Nc4ncnc5ccc(NC6CCCC6)cc45)cc3C)c2n1`, the IC50 stood at 8 nM in data set [1], 155 nM in data set [5] and 238 nM in the data set on SK-BR-3.
Turning to `COc1ccc2c(Nc3ccc(Oc4cccc5ccc(C)nc45)c(C)c3)ncnc2c1`, the IC50 in [1] was 239 nM; in data set [5], 166 nM.
The like results for `Cc1ccc2cccc(Oc3ccc(Nc4ncnc5ccc(NC(=O)C6CCCC6)cc45)cc3C)c2n1` were, in that order, 314 nM and 2010 nM.
As for `C=CC(=O)N1CCN(c2ncc3ncnc(Nc4ccc(Oc5ccc6c(c5)ncn6C)c(C)c4)c3n2)CC1`, the values for the IC50 (in [8]; in the data set with BaF3; in data set [9]) were 16 nM, 16 nM and greater than 5 nM, respectively.
Consider `Cc1cc(Nc2ncnc3cccc(OC4CCN(C)CC4)c23)ccc1Oc1ccn2ncnc2c1`, for which half-maximal inhibition in data set [7] (IC50) required 18 nM.
Regarding `Cc1cc(Nc2ncnc3ccc(NC(=O)/C=C/[C@H]4CCCN4C)cc23)ccc1Oc1ccn2ncnc2c1`, in [12], the half-life was greater than 4.81 days. Further, the results for the IC50 in the data set with NCI-N87 [13] and with BT-474 [14] were 2.65 nM and 2.4 nM, respectively.
In data set [1], `C=CC(=O)N1CCC(Oc2cc3c(Nc4ccc(Cl)c(Cl)c4F)ncnc3cc2OC)CC1` [POZIOTINIB] showed a half-inhibitory concentration (IC50) of 1.69 nM.
Take `CCOc1cc2ncc(C#N)c(Nc3ccc(OCc4ccccn4)c(Cl)c3)c2cc1NC(=O)/C=C/[C@H]1CCCN1C` [PYROTINIB]: half-maximal inhibition in [1] (IC50) was put at 38 nM.
Turning to `CCOc1cc2ncnc(Nc3ccc(Oc4ccn5ncnc5c4)c(C)c3)c2cc1NC(=O)/C(F)=C/[C@H]1CCCN1C` [SPH-5030], the IC50 in data set [1] was 3.51 nM; in [5], 8.13 nM; in the data set on NCI-N87 [10] it was 1.09 nM; in the data set on BT-474 [2], 2.01 nM; in data set [16], less than 1 nM; in data set [17] it was less than 1 nM. Further, in data set [15], the half-life is 555 min.
Regarding `Cc1cc(Nc2ncnc3ccc(NC4=NC(C)(C)CO4)cc23)ccc1Oc1ccn2ncnc2c1` [TUCATINIB], the half-maximal inhibitory concentration (IC50) is 8 nM in data set [1] and greater than 500 nM in [5].
In data set [1], `C=CC(=O)NC1CCN(c2ncc3ncnc(Nc4ccc(Oc5ccc6c(c5)ncn6C)c(C)c4)c3n2)CC1` [ZONGERTINIB] came in with an IC50 of 13 nM.
